Measurements reported in US20230023026A1, “METHODS FOR TREATMENT OF DAMAGED BILIARY DUCT” (Mor Research Applications Ltd., priority 2020, published 2023).
“Also recorded” adds a separate entry of the source.

Tests used:
[1] = test system: EHBD explants from Mdr2−/− mice; assay: Ex-vivo bile duct explant culture of Mdr2−/− EHBDs treated with L-NAC (H&E, K19/ZO-1 immunostaining, DAPI); assay type: cell-based, mouse
Experimental: Intact extrahepatic bile ducts (EHBDs) from 2-week (N≥12) and 16-week (N≥5) old mice were dissected, placed in ice-cold V-7 cold preservation buffer (Vitron) followed by incubation in cholangiocyte medium (also termed herein “BEC medium”), according to a modification of the protocol described by Karjoo and Wells (Isolation of neonatal extrahepatic cholangiocytes. J. Vis. Exp. 2014). Ducts were placed on roller inserts, treated with N-Acetyl-L-cysteine (L-NAC) and other compounds as noted below, and cultured in a high oxygenation Vitron Dynamic Organ Culture Incubator at 37° C., in 95% O2 and 5% CO2, for 1-3 days. In the incubator (designed to optimally incubate tissue slices), the explants rotated and were exposed to alternating periods in medium and 95% oxygen/5% CO2. Thin slices of tissue remained viable without visible damage or evidence of necrosis or apoptosis for at least 3 days.
1. Histological H&E staining of cells of ducts tissue was performed according to standard staining protocol, using two dyes: the basic dye haemotoxylin and the acidic dye eosin. Eosin reacted with cationic or basic components (also termed “acidophilic”) and stained red or pink acidophilic structures (e.g., cytoplasmic proteins, intracellular membranes, and extracellular fibers). Haematoxylin, reacted with anionic or acidic components (also termed “basophilic”) in cells and, when used in combination with aluminum ions (Al^3+), stained purplish blue basophilic structures (e.g., the nucleic acids in the nucleus and parts of the cytoplasm that contain RNA (e.g., ribosomes and the rough endoplasmic reticulum)). EHBDs were fixed in 4% paraformaldehyde (PFA) and embedded in paraffin, then sections (4-μm thick) were cut and stained with H&E.
3. Immunostaining or immunohistochemistry (IHC), which combines anatomical, immunological and biochemical techniques, was conducted in order to image discrete components in EHBDs tissues by using appropriately labeled antibodies that bind specifically to their target antigens in situ Immunohistochemistry made it possible to visualize the high-resolution distribution and localization of specific cellular components within cholangiocytes and within their proper histological context Immunostaining methodology included two main steps: sample preparation and sample staining. In the preparation step, ducts were fixed at 4% PFA for the preservation of cell morphology and tissue architecture. Thin sections of tissues (4-μm thick) attached to individual glass slides where then immunostained as described e.g., in Dipaola et al., 2013 (Hepatology 58:1486-1496, 2013), using antibodies against the cholangiocyte marker keratin 19 (K19, 1:10, Developmental Studies Hybridoma Bank, TROMAIII) and ZO-1 tight junction protein (anti-ZO1 antibody ab96587; Abcam).
4. […]

Mdr2−/− mice = assay: In vivo treatment of Mdr2−/− mice with L-NAC in drinking water, liver histology (H&E, Sirius Red); parameters: species or system mouse; conditions: 4-month old Mdr2−/− mice, 30 gr/L L-NAC in drinking water for 3 weeks
Text: The homozygote, multidrug resistance protein 2 knockout mouse (Mdr2KO or Mdr2^−/−, also known as Abcb4^−/−) lacks the protein MDR2, a canalicular phospholipid flippase that causes a complete absence of phosphatidylcholine in bile. Mdr2^−/− mice are a well-established model for biliary ducts diseases resulting from, or associated with, highly toxic bile. Multidrug resistance P-glycoproteins, Mdr2 in mouse and MDR3 in human, are choline-containing phospholipid phosphatidylcholine (PC) transporters. In the liver, Mdr2/MDR3 are involved in the translocation of PC from the inner leaflet to the outer leaflet of the canalicular membrane of hepatocytes for direct extraction by bile acids. Bile acids and PC are essential components in the bile that form bile acid containing micelles to thereby reduce the toxic detergent activity of bile acid for hepatocytes and cholangiocytes and to establish physiological bile flow. Mdr2 knockout mouse successively develops liver inflammation, hepatic fibrosis, and hepatocellular carcinoma (HCC) at late ages. The pathogenesis in Mdr2^−/− mice is commonly considered to be caused by increased levels of free toxic bile acids in the biliary canaliculus, which damages hepatocytes and cholangiocytes and provokes liver inflammation. This cholangiopathy is similar to human PSC. The wild type and Mdr2 knockout mice used in embodiments described herein are male and female mice of FVB genetic background (FVB/N and FVB/Mdr2^−/− mice, respectively). All mice were maintained under specific pathogen-free conditions with a 12-hour-light-dark cycle and permitted ad libitum consumption of water and a standard chow. FVB/Mdr2^−/− mice are reproducible model of spontaneously progressive chronic biliary liver disease associated with fibrosis, with histological lesions closely resembling human PSC. Though the Mdr2^−/− mouse is well-established for the investigation of PSC, little is known about EHBD injury in this model. 1. […] The liver repair effect in Mdr2^−/− mice treated with L-NAC was assessed. […]

## CC(=O)N[C@@H](CS)C(=O)O [L-NAC, N-acetyl-L-cysteine]
[1]; EHBDs from 2-week old Mdr2−/− mice, 5 μM L-NAC in fresh BEC medium, 24 hours
  histological damage, including coarse chromatin and nuclear crowding (H&E): improved
[1]; EHBDs from 2-week old Mdr2−/− mice, 5 μM L-NAC, 24 hours
  expression of the tight junction protein ZO-1 (immunostaining): restored apical tight junction expression
[1]; EHBDs from 16-week old Mdr2−/− mice, 5 μM L-NAC, 24 hours
  restoration of the apical tight junction ZO-1 (immunostaining): not seen; also recorded: poor ZO-1 restoration
[1]; Mdr2−/− EHBD explants, L-NAC and fresh BEC media for 24 hours
  duct architecture / morphology (H&E): improved duct architecture with a more normal appearing columnar epithelium; also recorded: substantial morphological recovery
Mdr2−/− mice
  inflammatory cell infiltration around the portal areas (H&E): reduction in inflammatory cell infiltration
  portal fibrosis in liver (H&E): reduced portal fibrosis
Mdr2−/− mice; vs untreated mouse
  liver fibrosis (Sirius Red staining): reduction in liver fibrosis
